# Reference: US20240207264A1, “PHARMACEUTICAL COMPOSITIONS COMPRISING INHIBITORS OF THE ANDROGEN RECEPTOR AND USES THEREOF” (ESSA PHARMA INC., priority 2021, published 2024)
# Key:
# [1] = Gastric-to-intestinal buffer (G-IB) transfer dissolution test; format: physicochemical; details: 0.5% SIF in PBS pH 6.5, dose 150 μgA/mL
# Description: Dissolution: The crystalline Compound A and the five SDD compositions (A-E from Example 4) is were tested in a 2-stage dissolution test designed to evaluate dissolution rate as well as inhibition of crystallization on transfer from simulated gastric to simulated intestinal media. Additionally, SDD composition E was also tested with additional HPMCAS-HF powder at a ratio of 1:1 SDD/HPMCAS-HF (SDD composition F).
# For the gastric-to-intestinal buffer (G-IB) transfer dissolution test, pH 2 (“gastric”) media was added to each sample at a target dose concentration of 300 μgA/mL. After 30 minutes of exposure to gastric media, concentrated simulated intestinal buffer (TB) is added to reach a final composition of 0.5% SIF in PBS, pH 6.5 at half the dose concentration (150 μgA/mL). The concentration was monitored by U fiber optic probes in situ as well as being assessed by either microcentrifugation (15,800×g) or ultracentrifugation (380,000×g).
# The microcentrifuge separates the precipitate (undissolved drug) and total solubilized drug Total solubilized drug consists of three solubilized species: freely solubilized drug (“free drug”), drug associated with bile salt micelles (“micelle bound drug”), and drug in small aggregate roughly 50-300 nm in size (“colloidal drug”). The ultracentrifuge further separates the colloidal drug and the supernatant contains only free drug and micelle bound drug. […]
# LNCaP = LNCaP prostate cancer xenograft model; format: in vivo; details: LNCaP (AR FL), castrated male mice, 30 mg/kg, Solution, qd24
# Description: (§1) Compound A's activity was measured in a variety of castrate-sensitive and castrate-resistant prostate cancer (CRPC) xenograft models (Table 32).
# HID28 = assay: Enzalutamide resistant patient-derived xenograft (PDX) model HID28; format: in vivo, nude mice; details: HID28 PDX (AR+ PSA+), castrated male mice, 15 mg/kg, Solution, qd28
# Description: as §1
# For example, intact male nude mice were engrafted with HID28 tumor fragments and once tumors reached ˜150 mm^3 the mice were castrated. The mice were enrolled in the experiment once the tumors started to regrow, 10 days post-castration. Compound A was tested in the HID28 PDX model at 60 mg/kg, QD for 28 days using SDD formulation with HPMCAS-H in 0.5% Methocel A4M in water.
# Mean tumor volume in castrated nude mice bearing enzalutamide resistant patient-derived xenograft (PDX) model HID28 was measured after oral treatment with solid dispersion composition of Compound A or enzalutamide for 28 days (n=6-7 per group) is shown in FIG. 16B.
# LNCaP95 = LNCaP95 prostate cancer xenograft model; format: in vivo; details: LNCaP95 (high level AR-V7), castrated male mice, 15 mg/kg, Solution, qd24
# Description: as §1
# PC-3 = PC-3 prostate cancer xenograft model; format: in vivo; details: PC-3 (non functional AR), intact male mice, 15 mg/kg, Solution, qd28
# Description: as §1
# VCaP tumors = assay: VCaP prostate cancer xenograft model; format: in vivo, SCID Beige male mice; details: VCaP (amplified AR, some AR-V7), castrated male mice, 15 mg/kg, Solution, qd24
# [2] = Amorphous solubility by slow addition from organic stock, UV/scattering detection; format: physicochemical; details: for solubility: kinetic from dmso stock
# Source text: Solubility: Generally, the solubility of an amorphous form is higher than that of the corresponding crystal form, due to the lack of crystalline lattice forces in the amorphous state. Solubility of the amorphous form of Compound A was studied by slow addition of the amorphous form from an organic stock solution into the pH 6.5 phosphate-buffered saline (PBS) solution or 0.5% wt simulated intestinal fluid (SIF) in pH 6.5 PBS. When the amorphous solubility is reached, a drug-rich phase forms which typically scatters light (e.g., liquid-liquid phase separation or LLPS), which can be detected by scattering of UV/Visible light and/or by dynamic light scattering (DLS).
# No scattering event prior to crystallization was observed.
smiles,measurement,setting,value
"CC(C)(c1ccc(OCc2ccnc(NS(C)(=O)=O)n2)cc1)c1cc(Cl)c(OCCCl)c(C#N)c1 [Crystalline Compound A, N-(4-((4-(2-(3-chloro-4-(2-chloroethoxy)-5-cyanophenyl)propan-2-yl)phenoxy)methyl)pyrimidin-2-yl)methanesulfonamide]","Concentration, IB (90 min)",[1],7 μgA/mL
"CNC(=O)c1ccc(N2C(=S)N(c3ccc(C#N)c(C(F)(F)F)c3)C(=O)C2(C)C)cc1F [Enzalutamide, enzalutamide, reference compound]",TGI (Tumor Growth Inhibition),LNCaP,>100%
same,TGI (Tumor Growth Inhibition),HID28,<0%
same,TGI (Tumor Growth Inhibition),LNCaP95,<0%
same,TGI (Tumor Growth Inhibition),PC-3,0%
same,TGI (Tumor Growth Inhibition),VCaP tumors,66%
"CC(C)(c1ccc(OCc2ccnc(NS(C)(=O)=O)n2)cc1)c1cc(Cl)c(OCCCl)c(C#N)c1 [amorphous form of Compound A, N-(4-((4-(2-(3-chloro-4-(2-chloroethoxy)-5-cyanophenyl)propan-2-yl)phenoxy)methyl)pyrimidin-2-yl)methanesulfonamide]",solubility,"[2]; 0.5% wt simulated intestinal fluid (SIF) in pH 6.5 PBS, fassgf or other biorelevant, 0.5% SIF (pH 6.5)",> 25 µg/mL
same,solubility,"[2]; pH 6.5 phosphate-buffered saline (PBS), aqueous buffer, pH 6.5 PBS",> 2.5 µg/mL
same,amorphous solubility relative to crystalline solubility,[2]; simulated intestinal media,at least 20 ×
